Where two headings read alike, the source gives them in different places.
Legend:
EGFR (WT) = target: T1, EGFR (WT) (Homo sapiens, UniProt P00533); test: In vitro kinase binding assay (phage/DNA-tagged kinase, affinity beads, qPCR), wild-type EGFR
T1 construct: The EGFR constructs span amino acids R669 to V1011 of the EGFR protein; T7 phage display fusion (kinase-tagged T7 phage) or DNA tag for qPCR; made in house; host or cells: E. coli (BL21-derived) infected with T7 phage for most assays; remaining kinases in HEK-293
T1 sequence (P00533 669-1011): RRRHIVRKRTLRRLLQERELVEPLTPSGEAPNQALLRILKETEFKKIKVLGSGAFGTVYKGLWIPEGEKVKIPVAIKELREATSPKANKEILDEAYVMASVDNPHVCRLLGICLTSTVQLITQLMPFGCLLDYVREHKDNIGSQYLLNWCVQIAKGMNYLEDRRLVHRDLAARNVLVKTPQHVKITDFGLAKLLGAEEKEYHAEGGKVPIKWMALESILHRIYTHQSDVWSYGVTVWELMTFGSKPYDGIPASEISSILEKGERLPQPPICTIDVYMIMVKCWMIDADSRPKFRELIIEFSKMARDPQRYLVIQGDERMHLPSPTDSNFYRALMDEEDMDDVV
Method: (§1) For most assays, kinase-tagged T7 phage strains were prepared in an E. coli host derived from the BL21 strain. For the EGFR assays, wild-type EGFR, or mutant EGFR (T790M, L858R) were utilized. The EGFR constructs span amino acids R669 to V1011 of the EGFR protein. E. coli were grown to log-phase and infected with T7 phage and incubated with shaking at 32° C. until lysis. The lysates were centrifuged and filtered to remove cell debris. The remaining kinases were produced in HEK-293 cells and subsequently tagged with DNA for qPCR detection. Streptavidin-coated magnetic beads were treated with biotinylated small molecule ligands for 30 minutes at room temperature to generate affinity resins for kinase assays. The liganded beads were blocked with excess biotin and washed with blocking buffer (SeaBlock (Pierce), 1% BSA, 0.05% Tween 20, 1 mM DTT) to remove unbound ligand and to reduce non-specific binding. Binding reactions were assembled by combining kinases, liganded affinity beads, and test compounds in 1× binding buffer (20% SeaBlock, 0.17×PBS, 0.05% Tween 20, 6 mM DTT). Test compounds were prepared as 111× stocks in 100% DMSO. Kds were determined using an 11-point 3-fold compound dilution series with three DMSO control points. All compounds for Kd measurements are distributed by acoustic transfer (non-contact dispensing) in 100% DMSO. The compounds were then diluted directly into the assays such that the final concentration of DMSO was 0.9%. All reactions performed in polypropylene 384-well plate. Each was a final volume of 0.02 ml. The assay plates were incubated at room temperature with shaking for 1 hour and the affinity beads were washed with wash buffer (lx PBS, 0.05% Tween 20). The beads were then re-suspended in elution buffer (lx PBS, 0.05% Tween 20, 0.5 μM nonbiotinylated affinity ligand) and incubated at room temperature with shaking for 30 minutes. The kinase concentration in the eluates was measured by qPCR.

EGFR (L858R, T790M) = target: T2, EGFR (L858R, T790M) (Homo sapiens, UniProt P00533, L858R/T790M); test: In vitro kinase binding assay (phage/DNA-tagged kinase, affinity beads, qPCR), mutant EGFR; settings: for Binding Affinity ratio of WT/DM: ratio of Kd EGFR (WT) to Kd EGFR (L858R, T790M)
T2 construct: The EGFR constructs span amino acids R669 to V1011 of the EGFR protein; T7 phage display fusion (kinase-tagged T7 phage) or DNA tag for qPCR; made in house; host or cells: E. coli (BL21-derived) infected with T7 phage for most assays; remaining kinases in HEK-293
T2 sequence (P00533 669-1011 T790M/L858R): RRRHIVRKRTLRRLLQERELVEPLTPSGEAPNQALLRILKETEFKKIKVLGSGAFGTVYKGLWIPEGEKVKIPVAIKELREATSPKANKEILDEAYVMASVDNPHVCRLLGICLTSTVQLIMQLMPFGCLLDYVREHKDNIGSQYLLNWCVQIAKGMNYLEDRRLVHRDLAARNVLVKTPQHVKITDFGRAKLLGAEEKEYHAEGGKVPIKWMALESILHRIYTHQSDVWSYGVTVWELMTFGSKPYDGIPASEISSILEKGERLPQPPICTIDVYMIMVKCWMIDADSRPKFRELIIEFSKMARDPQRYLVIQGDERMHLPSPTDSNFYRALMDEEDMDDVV
Method: as §1

[1] = wild-type EGFR construct R669 to V1011, 11-point 3-fold dilution series, 1 hour at room temperature, read-out: EGFR (WT) Kd
[2] = mutant EGFR (T790M, L858R) construct R669 to V1011, 11-point 3-fold dilution series, 1 hour at room temperature, read-out: EGFR (L858R, T790M) Kd

Kd (EGFR (WT); [1]) [nM]	Kd (EGFR (L858R, T790M); [2]) [nM]	SMILES	Binding Affinity ratio of WT/DM (EGFR (L858R, T790M))	Kd (EGFR (WT)) [nM]	Kd (EGFR (L858R, T790M)) [nM]
2 to 100	< 1	C=CC(=O)N[C@@H]1CN(c2nc(Nc3cn(CCCNC(=O)CN4CCN(CC(=O)O)CCN(CC(=O)O)CCN(CC(=O)O)CC4)nc3OC)c3ncn(C)c3n2)C[C@H]1F [Compound 001, 2-[4,7-bis(carboxymethyl)-10-[2-[3-[4-[[2-[(3R,4R)-3-fluoro-4-(prop-2-enoylamino)pyrrolidin-1-yl]-9-methyl-purin-6-yl]amino]-3-methoxy-pyrazol-1-yl]propylamino]-2-oxo-ethyl]-1,4,7,10-tetrazacyclododec-1-yl]acetic acid]	A (4 < A ≤ 25)		
		C=CC(=O)N[C@@H]1CN(c2nc(Nc3cn(CCCNC(=O)CN4CCN5CCN6CCN(CC4)CC(=O)[O][Lu]([O]C(=O)C5)[O]C(=O)C6)nc3OC)c3ncn(C)c3n2)C[C@H]1F [Compound 001-Lu, N-[(3R,4R)-4-fluoro-1-[6-[[3-methoxy-1-[3-[[2-(3,16,19-trioxo-2,17,18-trioxa-5,8,11,14-tetraza-1λ3-lutetatricyclo[9.6.3.25,14]docosan-8-yl)acetyl]amino]propyl]pyrazol-4-yl]amino]-9-methyl-purin-2-yl]pyrrolidin-3-yl]prop-2-enamide]	A (4 < A ≤ 25)	2 to 100	< 1
		C=CC(=O)N[C@@H]1CN(c2nc(Nc3cn(CCCCCNC(=O)CN4CCN5CCN6CCN(CC4)CC(=O)[O][Lu]([O]C(=O)C5)[O]C(=O)C6)nc3OC)c3ncn(C)c3n2)C[C@H]1F [Compound 002-Lu, N-[(3R,4R)-4-fluoro-1-[6-[[3-methoxy-1-[5-[[2-(3,16,19-trioxo-2,17,18-trioxa-5,8,11,14-tetraza-1λ3-lutetatricyclo[9.6.3.25,14]docosan-8-yl)acetyl]amino]pentyl]pyrazol-4-yl]amino]-9-methyl-purin-2-yl]pyrrolidin-3-yl]prop-2-enamide]	A (4 < A ≤ 25)	2 to 100	< 1
2 to 100	< 1	C=CC(=O)N[C@@H]1CN(c2nc(Nc3cn(CCCCCCCNC(=O)CN4CCN(CC(=O)O)CCN(CC(=O)O)CCN(CC(=O)O)CC4)nc3OC)c3ncn(C)c3n2)C[C@H]1F [Compound 003, 2-[4,7-bis(carboxymethyl)-10-[2-[7-[4-[[2-[(3R,4R)-3-fluoro-4-(prop-2-enoylamino)pyrrolidin-1-yl]-9-methyl-purin-6-yl]amino]-3-methoxy-pyrazol-1-yl]heptylamino]-2-oxo-ethyl]-1,4,7,10-tetrazacyclododec-1-yl]acetic acid]	A (4 < A ≤ 25)		
		C=CC(=O)N[C@@H]1CN(c2nc(Nc3cn(CCCCCCCNC(=O)CN4CCN5CCN6CCN(CC4)CC(=O)[O][Lu]([O]C(=O)C5)[O]C(=O)C6)nc3OC)c3ncn(C)c3n2)C[C@H]1F [Compound 003-Lu, N-[(3R,4R)-4-fluoro-1-[6-[[3-methoxy-1-[7-[[2-(3,16,19-trioxo-2,17,18-trioxa-5,8,11,14-tetraza-1λ3-lutetatricyclo[9.6.3.25,14]docosan-8-yl)acetyl]amino]heptyl]pyrazol-4-yl]amino]-9-methyl-purin-2-yl]pyrrolidin-3-yl]prop-2-enamide]	A (4 < A ≤ 25)	2 to 100	< 1
100 to 1000	1 to 25	C=CC(=O)N[C@@H]1CN(c2nc(Nc3cn(CCCCCNC(=O)CN4CCN(CC(=O)O)CCN(CC(=O)O)CCN(CC(=O)O)CC4)nc3OC)c3ncn(C(C)(C)C)c3n2)C[C@H]1F [Compound 004, 2-[4-[2-[5-[4-[[9-tert-butyl-2-[(3R,4R)-3-fluoro-4-(prop-2-enoylamino)pyrrolidin-1-yl]purin-6-yl]amino]-3-methoxy-pyrazol-1-yl]pentylamino]-2-oxo-ethyl]-7,10-bis(carboxymethyl)-1,4,7,10-tetrazacyclododec-1-yl]acetic acid]	B (25 < B ≤ 100)		
		C=CC(=O)N[C@@H]1CN(c2nc(Nc3cn(CCCCCNC(=O)CN4CCN5CCN6CCN(CC4)CC(=O)[O][Lu]([O]C(=O)C5)[O]C(=O)C6)nc3OC)c3ncn(C(C)(C)C)c3n2)C[C@H]1F [Compound 004-Lu, N-[(3R,4R)-1-[9-tert-butyl-6-[[3-methoxy-1-[5-[[2-(3,16,19-trioxo-2,17,18-trioxa-5,8,11,14-tetraza-1λ3-lutetatricyclo[9.6.3.25,14]docosan-8-yl)acetyl]amino]pentyl]pyrazol-4yl]amino]purin-2-yl]-4-fluoro-pyrrolidin-3-yl]prop-2-enamide]	B (25 < B ≤ 100)	2 to 100	< 1
1000 to 2500	1 to 25	C=CC(=O)N[C@@H]1CN(c2nc(Nc3cn(CCCCCNC(=O)CN4CCN(CC(=O)O)CCN(CC(=O)O)CCN(CC(=O)O)CC4)nc3CC)c3ncn(C(C)(C)C)c3n2)C[C@H]1F [Compound 005, 2-[4-[2-[5-[4-[[9-tert-butyl-2-[(3R,4R)-3-fluoro-4-(prop-2-enoylamino)pyrrolidin-1-yl]purin-6-yl]amino]-3-ethyl-pyrazol-1-yl]pentylamino]-2-oxo-ethyl]-7,10-bis(carboxymethyl)-1,4,7,10-tetrazacyclododec-1-yl]acetic acid]	C (100 < C ≤ 1000)		
		C=CC(=O)N[C@@H]1CN(c2nc(Nc3cn(CCCCCNC(=O)CN4CCN5CCN6CCN(CC4)CC(=O)[O][Lu]([O]C(=O)C5)[O]C(=O)C6)nc3CC)c3ncn(C(C)(C)C)c3n2)C[C@H]1F [Compound 005-Lu, N-[(3R,4R)-1-[9-tert-butyl-6-[[3-ethyl-1-[5-[[2-(3,16,19-trioxo-2,17,18-trioxa-5,8,11,14-tetraza-1λ3-lutetatricyclo[9.6.3.25,14]docosan-8-yl)acetyl]amino]pentyl]pyrazol-4-yl]amino]purin-2-yl]-4-fluoro-pyrrolidin-3-yl]prop-2-enamide]	C (100 < C ≤ 1000)	1000 to 2500	1 to 25
1000 to 2500	1 to 25	C=CC(=O)N[C@@H]1CN(c2nc(Nc3cn(CCCCCNC(=O)CN4C[C@H](CC)N(CC(=O)O)C[C@H](CC)N(CC(=O)O)C[C@H](CC)N(CC(=O)O)C[C@@H]4CC)nc3CC)c3ncn(C(C)(C)C)c3n2)C[C@H]1F [Compound 006, 2,2′,2″-((2S,5S,8S,11S)-10-(2-((5-(4-((2-((3R,4R)-3-acrylamido-4-fluoropyrrolidin-1-yl)-9-(tert-butyl)-9H-purin-6-yl)amino)-3-ethyl-1H-pyrazol-1-yl)pentyl)amino)-2-oxoethyl)-2,5,8,11-tetraethyl-1,4,7,10-tetraazacyclododecane-1,4,7-triyl)triacetic acid]	B (25 < B ≤ 100)		

SMILES	Kd (EGFR (WT); [1]) [nM]	Kd (EGFR (L858R, T790M); [2]) [nM]	Binding Affinity ratio of WT/DM (EGFR (L858R, T790M))	Kd (EGFR (WT)) [nM]	Kd (EGFR (L858R, T790M)) [nM]
C=CC(=O)N[C@@H]1CN(c2nc(Nc3cn(CCCCCNC(=O)CN4CCN(CC(=O)O)CCN(CC(=O)O)CCN(CC(=O)O)CC4)nc3OC)c3ncn(C)c3n2)C[C@H]1F [Compound 002, 2-[4,7-bis(carboxymethyl)-10-[2-[5-[4-[[2-[(3R,4R)-3-fluoro-4-(prop-2-enoylamino)pyrrolidin-1-yl]-9-methyl-purin-6-yl]amino]-3-methoxy-pyrazol-1-yl]pentylamino]-2-oxo-ethyl]-1,4,7,10-tetrazacyclododec-1-yl]acetic acid]	2 to 100	< 1			
